Test results taken from patent US9745291B2, “PRMT5 inhibitors containing a dihydro- or tetrahydroisoquinoline and uses thereof” (Epizyme, Inc., priority 2012, dated 2017).
Where two headings read alike, the source gives them in different places.

Columns and labels:
PRMT5/MEP50 = PRMT5/MEP50 (Homo sapiens (Human), UniProt O14744); assay: PRMT5 Biochemical Assay (PRMT5/MEP50 enzyme assay on peptide substrate, 3H-SAM Flashplate); conditions: PRMT5 biochemical assay; read-out: Biochemical IC50
Z-138 cell line = assay: Z-138 Proliferation Assay (Cell Titer Glo, 5 days); type: cell-based; conditions: Z-138 cells
Excerpt: [formula] Z-138 Proliferation Assay
Z-138 suspension cells were purchased from ATCC (American Type Culture Collection, Manassas, Va.). RPMI/Glutamax medium, penicillin-streptomycin, heat inactivated fetal bovine serum were purchased from Life Technologies, Grand Island, N.Y., USA. V-bottom polypropylene 384-well plates were purchased from Greiner Bio-One, Monroe, N.C., USA. Cell culture 384-well white opaque plates were purchased from Perkin Elmer, Waltham, Mass., USA. Cell-Titer Glo® was purchased from Promega Corporation, Madison, Wis., USA. SpectraMax M5 plate reader was purchased from Molecular Devices LLC, Sunnyvale, Calif., USA.
Z-138 suspension cells were maintained in growth medium (RPMI 1640 supplemented with 10% v/v heat inactivated fetal bovine serum and cultured at 37° C. under 5% CO2 Under assay conditions, cells were incubated in assay medium (RPMI 1640 supplemented with 10% v/v heat inactivated fetal bovine serum and 100 units/mL penicillin-streptomycin) at 37° C. under 5% CO2.
For the assessment of the effect of compounds on the proliferation of the Z-138 cell line, exponentially growing cells were plated in 384-well white opaque plates at a density of 10,000 cells/ml in a final volume of 50 μl of assay medium. A compound source plate was prepared by performing triplicate nine-point 3-fold serial dilutions in DMSO, beginning at 10 mM (final top concentration of compound in the assay was 20 μM and the DMSO was 0.2%). A 100 nL aliquot from the compound stock plate was added to its respective well in the cell plate. […] After addition of compounds, assay plates were incubated for 5 days at 37° C., 5% CO2, relative humidity >90%.
Cell viability was measured by quantitation of ATP present in the cell cultures, adding 35 μl of Cell Titer Glo® reagent to the cell plates. Luminescence was read in the SpectraMax M5 microplate reader. The concentration of compound inhibiting cell viability by 50% was determined using a 4-parametric fit of the normalized dose response curves.

[1] = tested on: symmetric di-methyl arginine in Z-138 cells; assay: Z-138 Methylation Assay (In Cell Western for symmetric di-methyl arginine and DNA content); type: cell-based; conditions: read-out: ICW EC50
Excerpt: [formula] Where top and bottom are the normally allowed to float, but may be fixed at 100 or 0 respectively in a 3-parameter fit. The Hill Coefficient normally allowed to float but may also be fixed at 1 in a 3-parameter fit. Y is the % inhibition and X is the compound concentration. Z-138 Methylation Assay
Z-138 suspension cells were purchased from ATCC (American Type Culture Collection, Manassas, Va.). RPMI/Glutamax medium, penicillin-streptomycin, heat inactivated fetal bovine serum, and D-PBS were purchased from Life Technologies, Grand Island, N.Y., USA. Odyssey blocking buffer, 800CW goat anti-rabbit IgG (H+L) antibody, and Licor Odyssey infrared scanner were purchased from Licor Biosciences, Lincoln, Nebr., USA. Symmetric di-methyl arginine antibody was purchased from EMD Millipore, Billerica, Mass., USA. 16% Paraformaldehyde was purchased from Electron Microscopy Sciences, Hatfield, Pa., USA.
Z-138 suspension cells were maintained in growth medium (RPMI 1640 supplemented with 10% v/v heat inactivated fetal bovine serum and 100 units/mL penicillin-streptomycin) and cultured at 37° C. under 5% CO2.
Cell Treatment, in Cell Western (ICW) for Detection of Symmetric Di-Methyl Arginine and DNA Content.
Z-138 cells were seeded in assay medium at a concentration of 50,000 cells per mL to a 384-well cell culture plate with 50 μL per well. Compound (100 nL) from 384 well source plates was added directly to 384 well cell plate. Plates were incubated at 37° C., 5% CO2 for 96 hours. After four days of incubation, 40 μL of cells from incubated plates were added to poly-D-lysine coated 384 well culture plates (BD Biosciences 356697). Plates were incubated at room temperature for 30 minutes then incubated at 37° C., 5% CO2 for 5 hours. After the incubation, 40 μL per well of 8% paraformaldehyde in PBS (16% paraformaldahyde was diluted to 8% in PBS) was added to each plate and incubated for 30 minutes. Plates were transferred to a Biotek 405 plate washer and washed 5 times with 100 μL per well of wash buffer (1×PBS with 0.1% Triton X-100 (v/v)). Next 30 μL per well of Odyssey blocking buffer were added to each plate and incubated 1 hour at room temperature. Blocking buffer was removed and 20 μL per well of primary antibody was added (symmetric di-methyl arginine diluted 1:100 in Odyssey buffer with 0.1% Tween 20 (v/v)) and plates were incubated overnight (16 hours) at 4° C. Plates were washed 5 times with 100 μL per well of wash buffer. Next 20 μL per well of secondary antibody was added (1:200 800CW goat anti-rabbit IgG (H+L) antibody, 1:1000 DRAQ5 (Biostatus limited) in Odyssey buffer with 0.1% Tween 20 (v/v)) and incubated for 1 hour at room temperature. The plates were washed 5 times with 100 μL per well wash buffer then 1 time with 100 μL per well of water. Plates were allowed to dry at room temperature then imaged on the Licor Odyssey machine which measures integrated intensity at 700 nm and 800 nm wavelengths. Both 700 and 800 channels were scanned.
First, the ratio for each well was determined by:
Each plate included fourteen control wells of DMSO only treatment (minimum inhibition) as well as fourteen control wells for maximum inhibition treated with 3 μM of a reference compound (Background wells). The average of the ratio values for each control type was calculated and used to determine the percent inhibition for each test well in the plate. Reference compound was serially diluted three-fold in DMSO for a total of nine test concentrations, beginning at 3 μM. Percent inhibition was determined and IC50 curves were generated using triplicate wells per concentration of compound. […]

[2] = Homo sapiens, Z-138, Z-138 cells

Chain of PRMT5/MEP50 (O14744 other isoform, or with tags, fused parts or gaps): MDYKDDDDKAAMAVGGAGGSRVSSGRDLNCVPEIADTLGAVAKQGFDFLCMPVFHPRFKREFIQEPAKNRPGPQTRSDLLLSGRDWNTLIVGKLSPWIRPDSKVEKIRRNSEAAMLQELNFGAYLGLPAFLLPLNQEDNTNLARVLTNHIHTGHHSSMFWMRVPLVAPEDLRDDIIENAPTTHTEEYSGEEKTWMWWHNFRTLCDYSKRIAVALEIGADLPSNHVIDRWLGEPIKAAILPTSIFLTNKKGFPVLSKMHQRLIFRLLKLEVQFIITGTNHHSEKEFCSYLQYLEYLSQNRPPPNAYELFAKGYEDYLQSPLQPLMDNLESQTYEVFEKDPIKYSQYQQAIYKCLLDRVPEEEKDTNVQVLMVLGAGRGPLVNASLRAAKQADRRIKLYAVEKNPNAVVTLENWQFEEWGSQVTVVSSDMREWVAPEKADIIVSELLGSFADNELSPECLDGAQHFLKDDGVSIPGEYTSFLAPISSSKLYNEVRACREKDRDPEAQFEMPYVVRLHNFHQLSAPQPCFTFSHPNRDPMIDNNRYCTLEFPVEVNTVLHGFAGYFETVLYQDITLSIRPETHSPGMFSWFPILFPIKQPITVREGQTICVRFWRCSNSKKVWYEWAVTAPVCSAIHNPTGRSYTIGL
Chain of PRMT5/MEP50 (Q9BQA1 other isoform, or with tags, fused parts or gaps partner): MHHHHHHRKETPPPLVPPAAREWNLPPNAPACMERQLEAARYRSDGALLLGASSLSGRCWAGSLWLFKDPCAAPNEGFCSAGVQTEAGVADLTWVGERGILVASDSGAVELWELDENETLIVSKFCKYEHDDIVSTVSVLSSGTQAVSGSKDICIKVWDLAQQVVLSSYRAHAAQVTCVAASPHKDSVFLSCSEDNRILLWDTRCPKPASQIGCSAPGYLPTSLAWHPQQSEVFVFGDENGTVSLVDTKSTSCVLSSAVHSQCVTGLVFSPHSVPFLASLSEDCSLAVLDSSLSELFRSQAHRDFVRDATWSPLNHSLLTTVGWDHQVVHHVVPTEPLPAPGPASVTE

IC50 (PRMT5/MEP50) [nM]	EC50 [1, 2] [nM]	EC50 ([1]; Z-138 cells) [nM]	Structure (SMILES)	EC50 (Z-138 cell line; Homo sapiens, Z-138, 120 h) [nM]	EC50 (Z-138 cell line) [nM]
1000 to 10000	> 1000	–	CC1CN(S(=O)(=O)c2ccccc2OCC(=O)NC[C@@H](O)CN2CCc3ccccc3C2)CCN1C (stereo partly drawn) [Compound 211]	> 20000	–
101 to 1000	> 1000	–	CN1CCCC(c2c(CS(C)(=O)=O)cccc2OCC(=O)NC[C@@H](O)CN2CCc3ccccc3C2)C1 (stereo partly drawn) [Compound 247]	> 20000	–
< 100	< 100	–	CC(C)N(C)CCN(C)S(=O)(=O)c1ccccc1OCC(=O)NC[C@@H](O)CN1CCc2ccccc2C1 [Compound 260]	1000 to 10000	–
101 to 1000	101 to 1000	–	CN(C)C1CN(S(=O)(=O)c2ccccc2OCC(=O)NC[C@@H](O)CN2CCc3ccccc3C2)CC1O (stereo partly drawn) [Compound 216]	> 20000	–
101 to 1000	> 1000	–	CC(C)N1CCCC(c2c(NS(C)(=O)=O)cccc2OCC(=O)NC[C@@H](O)CN2CCc3ccccc3C2)C1 (stereo partly drawn) [Compound 266]	> 20000	–
< 100	< 100	–	CCN1CCN(c2cccc(OCC(=O)NC[C@@H](O)CN3CCc4ccccc4C3)c2S(=O)(=O)N(C)C)CC1 [Compound 277]	< 100	–
< 100	< 100	–	CN(CC1CCNC1)S(=O)(=O)c1ccccc1OCC(=O)NC[C@@H](O)CN1CCc2ccccc2C1 (stereo partly drawn) [Compound 219]	–	101 to 1000
< 100	< 100	–	CN(CC1CNC1)S(=O)(=O)c1ccccc1OCC(=O)NC[C@@H](O)CN1CCc2ccccc2C1 [Compound 232]	1000 to 10000	–
< 100	< 100	–	CN1CC[C@H](CN(C)S(=O)(=O)c2ccccc2OCC(=O)NC[C@@H](O)CN2CCc3ccccc3C2)C1 [Compound 274]	101 to 1000	–
< 100	< 100	–	CN1CCN(c2cccc(OCC(=O)NC[C@@H](O)CN3CCc4ccccc4C3)c2S(=O)(=O)N(C)C)CC1 [Compound 275]	< 100	–
< 100	< 100	–	CN1CC(CN(C)S(=O)(=O)c2ccccc2OCC(=O)NC[C@@H](O)CN2CCc3ccccc3C2)C1 [Compound 257]	101 to 1000	–

Continued, compound first:

Structure (SMILES)	IC50 (PRMT5/MEP50) [nM]	EC50 [1, 2] [nM]	EC50 ([1]; Z-138 cells) [nM]	EC50 (Z-138 cell line; Homo sapiens, Z-138, 120 h) [nM]	EC50 (Z-138 cell line) [nM]
CNC1CN(S(=O)(=O)c2ccccc2OCC(=O)NC[C@@H](O)CN2CCc3ccccc3C2)CC1O (stereo partly drawn) [Compound 246]	< 100	101 to 1000	–	> 20000	–
Cc1cccc2[nH]c(CCC(=O)NC[C@H](O)CN3CCc4ccccc4C3)nc12 [Compound 250]	< 100	< 100	–	1000 to 10000	–
O=C(COc1ccccc1[C@H]1CCCNC1)NC[C@H](O)CN1CCc2ccccc2C1 [Compound 261]	< 100	101 to 1000	–	1000 to 10000	–
O=C(CCn1cnc2ccccc21)NC[C@@H](O)CN1CCc2ccccc2C1 [Compound 206]	1000 to 10000	> 1000	–	> 20000	–
Cc1ccc2[nH]c(CCC(=O)NC[C@H](O)CN3CCc4ccccc4C3)nc2c1 [Compound 224]	< 100	< 100	–	1000 to 10000	–
O=C(COc1cccc(-c2c[nH]cn2)c1)NC[C@@H](O)CN1CCc2ccccc2C1 [Compound 195]	1000 to 10000	> 1000	–	> 20000	–
O=C(CCc1nc2c(F)cccc2[nH]1)NC[C@H](O)CN1CCc2ccccc2C1 [Compound 241]	< 100	< 100	–	101 to 1000	–
O=C(COc1cccc(C(=O)NCCNCCO)c1)NC[C@@H](O)CN1CCc2ccccc2C1 [Compound 196]	101 to 1000	> 1000	–	> 20000	–
CN(CC1CCNC1)S(=O)(=O)c1ccccc1OCC(=O)NC[C@@H](O)CN1CCc2ccccc2C1 (stereo partly drawn) [Compound 220]	< 100	–	101 to 1000	–	10000 to 50000
O=C(CCc1cn2ccccc2n1)NC[C@H](O)CN1CCc2ccccc2C1 [Compound 229]	101 to 1000	101 to 1000	–	10000 to 50000	–
O=C(COc1ccccc1[C@@H]1CCCNC1)NC[C@H](O)CN1CCc2ccccc2C1 [Compound 262]	< 100	101 to 1000	–	10000 to 50000	–
O=C(CCc1nc2cc(Cl)ccc2[nH]1)NC[C@@H](O)CN1CCc2ccccc2C1 [Compound 208]	101 to 1000	101 to 1000	–	10000 to 50000	–
O=C(COc1ccccc1[C@@H]1CCCCN1)NC[C@@H](O)CN1CCc2ccccc2C1 [Compound 236]	101 to 1000	> 1000	–	10000 to 50000	–
O=C(COc1ccccc1C1CNCC(O)C1)NC[C@@H](O)CN1CCc2ccccc2C1 (stereo partly drawn) [Compound 237]	101 to 1000	> 1000	–	> 20000	–
O=C(COc1ccccc1[C@@H]1CCCNC1)NC[C@@H](O)CN1CCc2ccccc2C1 [Compound 264]	101 to 1000	> 1000	–	10000 to 50000	–
O=C(COc1nc2ccccc2[nH]1)NC[C@H](O)CN1CCc2ccccc2C1 [Compound 223]	101 to 1000	101 to 1000	–	1000 to 10000	–
Cc1ccc2[nH]c(CCC(=O)NC[C@@H](O)CN3CCc4ccccc4C3)nc2c1 [Compound 207]	101 to 1000	101 to 1000	–	10000 to 50000	–
O=C(COc1ccccc1N1CCNCC1)NC[C@H](O)CN1CCc2ccccc2C1 [Compound 271]	< 100	< 100	–	1000 to 10000	–
O=C(COc1cccc(-n2ccnc2)c1)NC[C@@H](O)CN1CCc2ccccc2C1 [Compound 194]	101 to 1000	> 1000	–	> 20000	–
O=C(CCc1nc2c(Cl)cccc2[nH]1)NC[C@H](O)CN1CCc2ccccc2C1 [Compound 227]	< 100	< 100	–	101 to 1000	–
